From patent US12662491B2 (Redona Therapeutics, Inc., priority 2020, dated 2026)

Target: T1, Zcchc11 enzyme (Homo sapiens, UniProt Q5TAX3)
T1 construct: made in house; host or cells: HEK293 cells (Zcchc11); E. coli Rosetta II (LIN28A)
T1 sequence (Q5TAX3 212-1420): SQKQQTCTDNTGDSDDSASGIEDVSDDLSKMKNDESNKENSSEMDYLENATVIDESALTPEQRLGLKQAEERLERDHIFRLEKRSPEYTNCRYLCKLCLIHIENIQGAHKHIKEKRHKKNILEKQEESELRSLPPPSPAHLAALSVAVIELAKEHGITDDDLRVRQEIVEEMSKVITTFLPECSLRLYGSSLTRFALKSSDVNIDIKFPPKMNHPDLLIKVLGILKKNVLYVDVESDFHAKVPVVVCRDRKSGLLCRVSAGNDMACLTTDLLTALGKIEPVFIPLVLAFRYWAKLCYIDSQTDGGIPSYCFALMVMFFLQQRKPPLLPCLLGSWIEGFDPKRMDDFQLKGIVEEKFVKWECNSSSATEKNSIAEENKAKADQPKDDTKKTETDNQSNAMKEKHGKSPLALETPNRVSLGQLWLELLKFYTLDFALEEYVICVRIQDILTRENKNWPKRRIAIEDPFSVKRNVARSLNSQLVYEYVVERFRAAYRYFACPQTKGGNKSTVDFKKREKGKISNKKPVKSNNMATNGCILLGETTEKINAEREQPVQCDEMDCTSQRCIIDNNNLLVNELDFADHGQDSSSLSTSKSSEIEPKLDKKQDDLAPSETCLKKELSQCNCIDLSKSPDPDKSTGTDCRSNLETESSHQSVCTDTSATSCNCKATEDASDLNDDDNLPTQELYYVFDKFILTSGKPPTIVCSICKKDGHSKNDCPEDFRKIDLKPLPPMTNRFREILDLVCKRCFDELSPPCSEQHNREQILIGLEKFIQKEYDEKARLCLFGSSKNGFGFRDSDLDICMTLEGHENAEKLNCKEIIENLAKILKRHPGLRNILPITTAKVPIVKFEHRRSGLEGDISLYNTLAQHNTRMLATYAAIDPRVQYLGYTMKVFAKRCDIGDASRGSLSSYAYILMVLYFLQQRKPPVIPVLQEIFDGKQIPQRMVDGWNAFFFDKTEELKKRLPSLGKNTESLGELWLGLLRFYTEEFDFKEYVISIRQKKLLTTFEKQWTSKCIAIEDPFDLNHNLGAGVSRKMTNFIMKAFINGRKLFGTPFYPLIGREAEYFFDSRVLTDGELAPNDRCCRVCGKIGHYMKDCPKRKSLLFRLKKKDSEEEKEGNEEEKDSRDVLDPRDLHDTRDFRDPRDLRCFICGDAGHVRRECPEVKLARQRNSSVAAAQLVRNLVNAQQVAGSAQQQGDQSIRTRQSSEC
Test: TUTase assay (Zcchc11 assay, Lin28a-dependent polyuridylation of pre-let-7)
Type: biochemical
Settings: LIN28A 10 nM, Zcchc11 0.2 nM, 5′-fluorescein pre-let-7 miRNA 2 nM, UTP 5 uM, room temperature, 30 minutes pre-incubation; read-out: Potency Lin28a-dep Z11 IC50
Procedure: The purpose of the Zcchc11 assay is to determine compound potency against Zcchc11 enzyme through the measurement of IC50. Compound inhibition is measured as a function of polyuridine tails added to RNA substrates in the presence of active TUTase, UTP, and inhibitor. The Zcchc11 assay was done in a black, non-binding, 384 well plate (Corning #3575). All steps were performed at room temperature. For a typical assay, a 29 ul aliquot of assay buffer (50 mM HEPES pH 7.3, 150 mM KCl, 5 mM MgCl2, 10 mM DTT, 0.01% Triton X-100, 40 U/ml RNAsin (Promega)) containing LIN28A protein (final concentration: 10 nM) is added to each well. Next, 1 ul of compound in 100% DMSO is transferred from a compound dilution plate in which the compound is serially diluted. Next, 10 ul of a 5× mix of Zcchc11 and RNA substrate (5′-fluorescein labeled pre-let-7 miRNA (Dharmacon)) is added (final concentrations: 0.2 nM and 2 nM, respectively). The plate is placed on a plate shaker for 30 seconds to produce mixing, then incubated for 30 minutes. Next, 10 ul of a 5× mix of UTP and the quenching probe (3′-rhodamine labeled A20, polyadenosine nucleotide, (IDT)) is added (final concentrations: 5 uM and 4 nM, respectively). The plate is immediately placed in a Biotek Cytation 5 plate reader, and the time-dependent decrease in fluorescein fluorescence resulting from annealing of the A20 probe to polyuridine tails is recorded, using the kinetics mode of the reader. Reaction rates are obtained using linear fits to the early portion of progress curves. IC50 values are calculated using a four parameter fit with 100% enzyme activity determined from the DMSO control and 0% activity from control samples lacking UTP.
The LIN28A protein was expressed in and purified from E. coli, strain Rosetta II (Novagen). The entire coding sequence of the human, wild-type protein was cloned into expression vector pMAL (NEB), down-stream from a maltose-binding protein tag. The linker sequence contained a TEV protease cleavage site. The protein was purified from bacterial extracts using an MBP-Trap column (GE Healthcare Life Sciences), followed by tag cleavage and removal of the tag by ion-exchange chromatography. When necessary, contaminating bacterial RNA was removed using the procedure describe by Faehnle C R. et al. (2017) Multi-domain utilization by TUT4 and TUT7 in control of let-7 biogenesis. Nat Struct Mol Biol, 24:658-665.
The Zcchc11 protein was expressed in and purified from HEK293 cells. A truncated protein comprising residues 212-1420 of the human sequence was cloned into expression vector pTT5 (Viva Biotech) down-stream from a maltose-binding protein tag. The linker sequence contained a TEV protease cleavage site, and a FLAG tag was added to the carboxyl terminus of the protein. The protein was purified from cell extracts using an MBP-Trap column (GE Healthcare Life Sciences), followed by tag cleavage and further enrichment of the full length construct using anti-FLAG affinity media (Sigma Aldrich).
“+” represents an IC50 value that is greater than 50 μM; “++” represents an IC50 value that is greater than 10 μM and equal to or less than 50 μM; “+++” represents an IC50 value that is greater than 1 μM and equal to or less than 10 μM; and “++++” represents an IC50 value that is equal to or less than 1 μM.

Compound | IC50
C[C@H]1CCN(c2cc3c(cc2Cl)c(=O)c(C(=O)O)cn3-c2ccc(N3CC(N(C)C)C3)nc2)[C@H]1COc1ncccc1Cl (racemic) [Example 44, rac-6-chloro-7-((2R,3S)-2-(((3-chloropyridin-2-yl)oxy)methyl)-3-methylpyrrolidin-1-yl)-1-(6-(3-(dimethylamino)azetidin-1-yl)pyridin-3-yl)-4-oxo-1,4-dihydroquinoline-3-carboxylic acid] | ≤ 1000 nM

Same assay, conditions: Lin28a-dependent Zcchc11 (Z11) TUTase activity; read-out: Potency Lin28a-dep Z11 IC50

Compound | IC50
COc1ccc(F)c(OC[C@H]2C[C@H]3C[C@H]3N2c2cc3c(cc2F)c(=O)c(C(=O)O)cn3-c2ccnc(N)c2)n1 (racemic) [Compound 235, Rac-1-(2-aminopyridin-4-yl)-6-fluoro-7-((1R,3R,5R)-3-(((3-fluoro-6-methoxy-pyridin-2-yl)oxy)methyl)-2-azabicyclo [3.1.0]hexan-2-yl)-4-oxo-1,4-dihydro-quinoline-3-carboxylic acid] | ≤ 1000 nM
Cn1cc(-n2cc(C(=O)O)c(=O)c3cc(C#N)c(N4CCCC4COc4ncccc4F)cc32)cn1 (racemic) [Compound 245, rac-(R)-6-cyano-7-(2-(((3-fluoropyridin-2-yl)oxy)methyl)pyrrolidin-1-yl)-1-(1-methyl-1H-pyrazol-4-yl)-4-oxo-1,4-dihydro-quinoline-3-carboxylic acid] | ≤ 1000 nM
COCCN(C)C1CN(c2ccc(-n3cc(C(=O)O)c(=O)c4cc(F)c(N5CC[C@H](C)[C@@H]5COc5ncccc5Cl)cc43)cn2)C1 (racemic) [Compound 262, rac-7-((2R,3S)-2-(((3-chloropyridin-2-yl)oxy)methyl)-3-methyl-pyrrolidin-1-yl)-6-fluoro-1-(6-(3-((2-methoxy-ethyl)(methyl)amino)azetidin-1-yl)pyridin-3-yl)-4-oxo-1,4-dihydro-quinoline-3-carboxylic acid] | ≤ 1000 nM
O=C(O)c1cn(-c2cnc(OCc3ccccc3)cn2)c2cc(N3CCC[C@@H]3COc3ncccc3Cl)c(Cl)cc2c1=O (racemic) [Compound 263, rac-(R)-1-(5-(benzyloxy)pyrazin-2-yl)-6-chloro-7-(2-(((3-chloropyridin-2-yl)oxy)methyl)pyrrolidin-1-yl)-4-oxo-1,4-dihydro-quinoline-3-carboxylic acid] | ≤ 1000 nM
CN(C)C1CN(c2ccc(-n3cc(C(=O)O)c(=O)c4cc(Cl)c(N5CCC[C@@H]5COc5nc6c(cc5Cl)ncn6C)cc43)cn2)C1 (racemic) [Compound 274, rac-(R)-6-chloro-7-(2-(((6-chloro-3-methyl-3H-imidazo [4,5-b]pyridin-5-yl)oxy)methyl)pyrrolidin-1-yl)-1-(6-(3-(dimethyl-amino)azetidin-1-yl)pyridin-3-yl)-4-oxo-1,4-dihydro-quinoline-3-carboxylic acid] | ≤ 1000 nM
Cn1cc(-n2cc(C(=O)O)c(=O)c3cc(F)c(N4CCC[C@@H]4COc4ncccc4F)cc32)cn1 (racemic) [Compound 290, rac-(R)-6-fluoro-7-(2-(((3-fluoropyridin-2-yl)oxy)methyl)pyrrolidin-1-yl)-1-(1-methyl-1H-pyrazol-4-yl)-4-oxo-1,4-dihydro-quinoline-3-carboxylic acid] | ≤ 1000 nM
CN(C)C1CN(c2ccc(-n3cc(C(=O)O)c(=O)c4cc(Cl)c(N5CC(F)(F)C[C@@H]5COc5ncccc5Cl)cc43)cn2)C1 (racemic) [Compound 305, rac-(R)-6-chloro-7-(2-(((3-chloropyridin-2-yl)oxy)methyl)-4,4-difluoro-pyrrolidin-1-yl)-1-(6-(3-(dimethyl-amino)azetidin-1-yl)pyridin-3-yl)-4-oxo-1,4-dihydro-quinoline-3-carboxylic acid] | ≤ 1000 nM
CN(C)C1CN(c2ccc(-n3cc(C(=O)O)c(=O)c4cc(Cl)c(N5CC(c6cccnn6)C[C@@H]5COc5ncccc5Cl)cc43)cn2)C1 (mixture of isomers) [Compound 307, rac-6-chloro-7-((2R)-2-(((3-chloropyridin-2-yl)oxy)methyl)-4-(pyridazin-3-yl)pyrrolidin-1-yl)-1-(6-(3-(dimethyl-amino)azetidin-1-yl)pyridin-3-yl)-4-oxo-1,4-dihydro-quinoline-3-carboxylic acid] | ≤ 1000 nM
O=C(O)c1cn2c3cc(c(F)cc3c1=O)N1CCC[C@@H]1COc1ncccc1OCCOc1ccc-2cc1 (racemic) [Compound 312, rac-(R)-26-fluoro-24-oxo-21,24-dihydro-5,7,10-trioxa-2(1,7)-quinolina-6(2,3)-pyridina-3(1,2)-pyrrolidina-1(1,4)-benzenacyclo-decaphane-23-carboxylic acid formic acid] | > 50000 nM
NCCOc1cccnc1OC[C@H]1CCCN1c1cc2c(cc1Cl)c(=O)c(C(=O)O)cn2-c1ccc(Br)nc1 (racemic) [Compound 313, rac-(R)-7-(2-(((3-(2-aminoethoxy)pyridin-2-yl)oxy)methyl)pyrrolidin-1-yl)-1-(6-bromopyridin-3-yl)-6-chloro-4-oxo-1,4-dihydro-quinoline-3-carboxylic acid] | ≤ 1000 nM
CN(C)C1CN(c2ccc(-n3cc(C(=O)O)c(=O)c4cc(Cl)c(N5CCC[C@@]5(C)COc5ncccc5Cl)cc43)cn2)C1 (racemic) [Compound 314, rac-(R)-6-chloro-7-(2-(((3-chloropyridin-2-yl)oxy)methyl)-2-methyl-pyrrolidin-1-yl)-1-(6-(3-(dimethyl-amino)azetidin-1-yl)pyridin-3-yl)-4-oxo-1,4-dihydro-quinoline-3-carboxylic acid formic acid] | ≤ 1000 nM
CN(C)C1CN(c2ccc(-n3cc(C(=O)O)c(=O)c4cc(Cl)c(N5CC(c6ccccn6)C[C@@H]5COc5ncccc5Cl)cc43)cn2)C1 (mixture of isomers) [Compound 315, rac-6-chloro-7-((2R)-2-(((3-chloropyridin-2-yl)oxy)methyl)-4-(pyridin-2-yl)pyrrolidin-1-yl)-1-(6-(3-(dimethyl-amino)azetidin-1-yl)pyridin-3-yl)-4-oxo-1,4-dihydro-quinoline-3-carboxylic acid] | ≤ 1000 nM
